The subject of series [1] is clone 18 cells. In words: Modulation of drug cytotoxicity by added TSP-1, mimetic peptides, antibody or MDR inhibitor (MTT viability). The series is classed as cell-based, human. The note with it: for Effect on taxol resistance / taxol cytotoxicity in clone 18: added to culture with various taxol concentrations, MTT.
In series [2] the test system is M2182tTA. As to the kind of experiment: Drug sensitivity by MTT assay (IC50). The note with it: mean ± SD of three determinations. In kind it is cell-based, human. For orientation: Formazan colour is commonly taken as a measure of viable cells.
For series [3], the system named is Clone 18. In words: Drug sensitivity by MTT assay (IC50). The series is classed as cell-based, human. The note with it: for IC50: MTT assay, mean ± SD of three determinations; for Fold of resistance (Clone 18/M2182tTA): IC50 of clone 18 divided with IC50 of M2182tTA; for Killing of clone 18 cells compared with parental cells: non-taxane drugs, Table 1.
Series [4] has as its system clone 18 cells. In words: TUNEL assay of taxol-induced apoptosis. In kind it is cell-based, human. The note with it: taxol plus 7.5 μg/ml purified TSP-1, 3 days.
The test system of series [5] is M2182tTA cells. As to the kind of experiment: Modulation of drug cytotoxicity by added TSP-1, mimetic peptides, anti-CD47 antibody or pertussis toxin (MTT viability). In kind it is cell-based, human.
In series [6] the test system is M2182tTA cells. As to the kind of experiment: Preliminary taxol exposure of plated cells before selection of resistant clones. The series is classed as cell-based, human. The note with it: 5 days of exposure to 5 nM taxol; preliminary experiments.
The target in series [7] is CD47 receptor (integrin-associated protein) (human, UniProt Q08722 19-323). In words: cell-based or functional assay.
Setting [8] is: adriamycin, etoposide, vinblastine, vincristine, epothilone B.

Ends that are not written are not given here.

KRFYVVMWKK [4N1K]: the “Effect on taxol resistance / taxol cytotoxicity in clone 18” value in series [1] is listed as “dose-dependent partial reversal”.
Broadly, the IC50 is the concentration at which inhibition is half-maximal. Low values mean higher potency, high ones lower potency. In series [2] (Homo sapiens), `CC[C@]1(O)C[C@@H]2CN(CCc3c([nH]c4ccccc34)[C@@](C(=O)OC)(c3cc4c(cc3OC)N(C)[C@H]3[C@@](O)(C(=O)OC)[C@H](OC(C)=O)[C@]5(CC)C=CCN6CC[C@]43[C@@H]65)C2)C1` [Vinblastine, vinblastine] displayed an IC50 of 7.5 ± 0.18 nM. The molecule also registered an IC50 in series [3] (Homo sapiens) of 7 ± 0.21 nM. Further, in series [3], the “Fold of resistance (Clone 18/M2182tTA)” value turned out to be 0.93 and the “Killing of clone 18 cells compared with parental cells” value is “No evidence of reduced killing”.
For `COc1cc([C@@H]2c3cc4c(cc3[C@@H](O[C@@H]3O[C@@H]5CO[C@@H](C)O[C@H]5[C@H](O)[C@H]3O)[C@H]3COC(=O)[C@H]23)OCO4)cc(OC)c1O` [Etoposide, etoposide] the same measures were 800 ± 30 nM, 650 ± 60 nM, 0.81 and “No evidence of reduced killing”.
For the molecule GVITRIR (human) [ABT-510], the “Effect on taxol resistance / taxol cytotoxicity in clone 18” value in series [1] is listed as “no effect”.
Molecule `C/C(=C\c1csc(C)n1)[C@@H]1C[C@@H]2O[C@]2(C)CCC[C@H](C)[C@H](O)[C@@H](C)C(=O)C(C)(C)[C@@H](O)CC(=O)O1` [Epothilone B] showed an IC50 in series [2] of 0.75 ± 0.35 nM. Also, in series [3], the “Fold of resistance (Clone 18/M2182tTA)” value was found to be 0.9, 0.68 ± 0.21 nM corresponded to half-maximal inhibition (IC50) and the “Killing of clone 18 cells compared with parental cells” value is listed as “No evidence of reduced killing”.
Take `CC(=O)O[C@@]12CO[C@@H]1C[C@H](O)[C@@]1(C)C(=O)[C@H](O)C3=C(C)[C@@H](OC(=O)[C@H](O)[C@@H](NC(=O)OC(C)(C)C)c4ccccc4)C[C@@](O)([C@@H](OC(=O)c4ccccc4)[C@H]21)C3(C)C` [Docetaxel]: the values for the IC50 in series [2] (Homo sapiens) and in series [3] (Homo sapiens) were 2.66 ± 0.11 nM and 6.93 ± 0.05 nM, respectively. The “Fold of resistance (Clone 18/M2182tTA)” value in series [3] was 2.62.
Regarding “TSP-1: TSP-1 purified from human platelets, purchased from EMD Biosciences”, the “Survival and apoptosis with agent alone” value in series [1] (TSP-1 alone at the dosage added to clone 18 cultures) was “only limited ability to reduce survival and induce apoptosis”. The “Effect on taxol resistance / taxol cytotoxicity in clone 18” value in series [1] is on record as “dose-dependent partial reversal”. Further, in series [1] (setting [8]), the “Effect on killing of clone 18 cells by other chemotherapeutic agents” value is “no effects”. For the same molecule, the Taxol-induced apoptosis entry in series [4] is “dramatically and synergistically increased”. The “Effect on taxol-mediated killing of naïve M2182tTA cells” value in series [5] (added to culture with taxol, MTT) is recorded as “reduced survival”. Besides, in series [5] (setting [8]), the “Effect on sensitivity of M2182tTA cells to other chemotherapeutic drugs” value is given as “sensitization was not observed”.
Turning to `CC(=O)O[C@H]1C(=O)[C@@]2(C)[C@H]([C@H](OC(=O)c3ccccc3)[C@]3(O)C[C@H](OC(=O)[C@H](O)[C@@H](NC(=O)c4ccccc4)c4ccccc4)C(C)=C1C3(C)C)[C@]1(OC(C)=O)CO[C@@H]1C[C@@H]2O` [Taxol, Paclitaxel], the figures for the IC50 in series [2] (Homo sapiens) and in series [3] (Homo sapiens) were 7.2 ± 0.11 nM and 17.5 ± 0.18 nM, respectively. For the same molecule, the “Fold of resistance (Clone 18/M2182tTA)” value in series [3] was 2.45; in series [3] (listed as taxol), “approximately two and a half-fold”. The “Surviving M2182tTA cells” value in series [6] is on record as “no surviving M2182tTA cells”.
As to `CC[C@]1(O)C[C@H]2CN(CCc3c([nH]c4ccccc34)[C@@](C(=O)OC)(c3cc4c(cc3OC)N(C=O)[C@H]3[C@@](O)(C(=O)OC)[C@H](OC(C)=O)[C@]5(CC)C=CCN6CC[C@]43[C@@H]65)C2)C1` [Vincristine, vincristine], the IC50 in series [3] (Homo sapiens) was 12 ± 0.42 nM. Besides, in series [3], the “Fold of resistance (Clone 18/M2182tTA)” value is given as 1.09 and the “Killing of clone 18 cells compared with parental cells” value was “No evidence of reduced killing”.
For KRFYGGMWKK [4NGG], the “Effect on taxol resistance / taxol cytotoxicity in clone 18” value in series [1] is “no effect”.
In the case of `COc1cccc2c1C(=O)c1c(O)c3c(c(O)c1C2=O)C[C@@](O)(C(=O)CO)C[C@@H]3O[C@H]1C[C@H](N)[C@H](O)[C@H](C)O1` [Adriamycin, adriamycin], the IC50 in series [2] (Homo sapiens) worked out at 0.15 ± 0.0099 µg/mL; in series [3] (Homo sapiens), 0.133 ± 0.0071 µg/mL. Also, the “Fold of resistance (Clone 18/M2182tTA)” value in series [3] is recorded as 0.83. Also, the “Killing of clone 18 cells compared with parental cells” value in series [3] is on record as “No evidence of reduced killing”.

B1: anti-CD47 monoclonal antibody, clone B6H12 (BD Pharmingen) (antibody)
chain: EVQLVESGGDLVKPGGSLKLSCAASGFTFSGYGMSWVRQTPDKRLEWVATITSGGTYTYYPDSVKGRFTISRDNAKNTLYLQIDSLKSEDTAIYFCARSLAGNAMDYWGQGTSVTVSSGGGGSGGGGSGGGGSDIVMTQSPATLSVTPGDRVSLSCRASQTISDYLHWYQQKSHESPRLLIKFASQSISGIPSRFSGSGSGSDFTLSINSVEPEDVGVYYCQNGHGFPRTFGGGTKLEIK
B1: the “viability of M2182tTA cells to taxol treatment (MTT assay, 10 ug/ml antibody)” value in series [7] is 2.2 fold.

The values are drawn from patent publication US20060188508A1, “Methods and compositions for modulating angiogenesis” (priority 2005, published 2006).
